Experimental data as given in US20110110886A1, “SMALL MOLECULE INHIBITORS OF AUTOTAXIN AND METHODS OF USE” (Yale University, priority 2008, published 2011).
“Also recorded” adds a separate entry of the source.

Assays:
[1] = oral, ref. [43]; cited from earlier work
[2] = system: human melanoma cell line A2058; assay: Melanoma invasion and metastasis in vivo, nude mice with subcutaneous A2058; settings: oral gavage of bithionol-cyclodextrin suspension
Procedure: (§1) Nude mice were inoculated with human melanoma cell line A2058 subcutaneously in the right flank and observed until the tumor was palpable (about 5-8 days). The mice were then treated with oral gavage of a bithionol-cyclodextrin suspension (A-D) or a cyclodextrin suspension alone (E-H). […] Two of the untreated mice developed large tumors in the right hindquarter (cyan arrow, E) that grossly invaded the right gluteous maximus and could not be dissected without amputation (E&F). […] Of the remaining untreated mice, one developed a modest sized tumor with microscopic evidence of invasion, and a one developed a tumor without gross or microscopic evidence of invasive tumor.
as §1, with “The present invention was also tested in vivo. Nude” for “Nude”

A2058 melanoma cells = assay: Matrigel cell invasion assay, melanoma cells; type: cell-based, human; settings: A2058, 50 nM ATX
Procedure: All cell media was supplemented with 10% (v/v) fetal calf serum (FCS) (Gibco) and 1% (v/v) L-glutamine (Gibco) and grown at 37° C. in a humidified atmosphere containing 5% CO2.
(§2) Cell invasion assays: Matrigel matrix (1 mg/ml, Becton Dickenson) was added to […] gelatin-coated membranes placed in cell culture inserts (BD Falcon) and allowed to set for 24 hours at room temperature. The inserts were placed into companion 24 well plates (BD Falcon), and chemo-attractants (ATX ±inhibitors) and/or controls were added to the bottom of the wells. Cells (1×10^6) were added to the inserts and incubated for 3 hours at 37° C. Following incubation, the inserts were removed, fixed in 100% methanol, stained with DiffQuick solution, and mounted on glass slides. Non-invading cells were removed by scraping away the matrigel, and migrating cells were quantitated by counting cell number per high-powered field.

[3] = system: melanoma cell line HTB 63; assay: Cell migration assay, melanoma cell line HTB 63; type: cell-based, human
Procedure: 9B. […] All error bars in this figure indicate the standard error of the mean for nine replicates. The addition of LPA to the experimental groups containing inhibitors (LPA rescue) completely abrogated the small molecule inhibitory effect on cell motility (see discussion). […] Cell culture: Human melanoma cells, A2058 (ATCC), were grown in Dulbecco's Modified Eagle's Medium (DMEM) (Gibco), MeI 28 (ATCC), YUSAC2 (Yale University) and MeI-888 (Yale University) were grown in OptiMEM media (Gibco), and HTB 63 (ATCC) were grown in McKoy's 5a medium (ATCC). Human breast adenocarcinoma cells, MDA-MB-231(ATCC) and ovarian carcinoma cells […] (Gil Mor, Yale University) were grown in RPMI-1640 (Gibco). All cell media was supplemented with 10% (v/v) fetal calf serum (FCS) (Gibco) and 1% (v/v) L-glutamine (Gibco) and grown at 37° C. in a humidified atmosphere containing 5% CO2. Cell motility assays: […] Chemo-attractant (ATX ±inhibitor) and/or controls were placed in the lower half of the chamber, and the cells in the upper chamber. […] Non-migrating cells were removed from the membrane by scraping the top surface. The cells were quantitated by counting the cell number per high powered field in the various wells. Treatments were compared using a chi squared test.

[4] = system: ovarian carcinoma cells R182; assay: Matrigel cell invasion assay, primary ovarian cancer cells; type: cell-based, human; settings: 50 nM ATX
Procedure: Cell culture: Human melanoma cells, A2058 (ATCC), were grown in Dulbecco's Modified Eagle's Medium (DMEM) (Gibco), MeI 28 (ATCC), YUSAC2 (Yale University) and MeI-888 (Yale University) were grown in OptiMEM media (Gibco), and HTB 63 (ATCC) were grown in McKoy's 5a medium (ATCC). Human breast adenocarcinoma cells, MDA-MB-231(ATCC) and ovarian carcinoma cells R182 (Gil Mor, Yale University) were grown in RPMI-1640 (Gibco). All cell media was supplemented with 10% (v/v) fetal calf serum (FCS) (Gibco) and 1% (v/v) L-glutamine (Gibco) and grown at 37° C. in a humidified atmosphere containing 5% CO2.
as §2

ATX lyso-PLD activity = biological target: T1, ATX lyso-PLD activity (Homo sapiens, UniProt Q13822); assay: Time course assay of ATX lyso-PLD activity (FS-3 fluorescent product) with or without 10 μM compound over 30 minutes; type: biochemical; settings: 10 μM inhibitor, 30 minute interval, 300 nM ATX
T1 construct: consistent with a mature, glycosylated form of the enzyme; TEV cleavage site (C); 9-His (C); 6-His (C); made in house; host or cells: High Five insect cells (baculovirus, p-DEST-8)
Procedure: C. Structure of hexachlorophene, merbromin. Bithionol and their analogs -2,2′-Methylenebis(4-chlorophenol), Eosin Y and RJC 03297, respectively. D. Structure of NSC 48300 and its analogs. […] The assay conditions are 300 nM ATX in the presence or absence of 10 μM compound over 30 minutes.
Inhibitor screen: High throughput screens were performed against two libraries: the GenPlus library of 960 compounds (NINDS Custom Collection, MicroSource Discovery systems) and the NCI Diversity Set (1990 compounds, see http://dtp.nci.nih.gov/branches/dscb/repo_open.html). The screens were performed at the Yale Center for Chemical Genomics utilizing a Tecan Aquarius robot in combination with an Aquarius liquid handler and a Freedom EVO Workstation. A V&P Scientific 384 pin tool transferred small molecules (10 mM stock) from library plates into the optically clear, 384 well assay plates, and an Aquarius liquid handling robot transferred protein into the individual wells. The assays were performed in a total volume of 50 μL in assay buffer (50 mM Tris, 140 mM NaCl, 1 mM MgCl2, and 5 mM CaCl2, pH 8.0). Absorbance of p-nitrophenylate, the product of ATX's PDE activity with pNP-TMP (discussed below) was measured at 405 nm over a period of 12 hours. To monitor lysophospholipase-D activity, the fluorescence of FS-3 (625 nM or 4 μM) was monitored (λex=480 nm, λem=535 nm) in assay buffer over a period of 30 minutes in the presence of 300 nM ATX and 10 μM compound. The assay was evaluated using a statistical Z′ analysis, a quantitative measure to determine assay robustness for single point analysis on a high throughput screening platform. The Z′ analysis was performed from 32 maximum control values (c+) and 32 minimum controls (c−) on each plate. Assays consistently performed with Z′ factors of 0.75-0.85, higher than the minimum 0.5 considered robust.
Inhibition of ATX lyso-PLD activity by several NSC48300 analogs was qualitatively compared in a time course assay by measuring the production of fluorescent product in the presence or absence of 10 µM inhibitor over a 30 minute interval.

Compound	dose that can be safely dosed in humans [1]	microscopic appearance of the tumors [2]	gross evidence of metastatic melanoma upon necropsy ([2]; 5 mice)	inhibition of ATX-induced stimulation of melanoma cell invasion (A2058 melanoma cells)	inhibition of ATX-stimulated HTB63 cell migration ([3]; 50 nM ATX, 3 hours)	LPA rescue of inhibited HTB63 cell migration ([3]; excess LPA (75 nM))	reduction of ATX-stimulated ovarian cancer cell invasion [4]	inhibition of ATX-induced stimulation of melanoma cell invasion (A2058 melanoma cells; listed as NSC48300)	less product formation when compared to the enzyme alone (ATX lyso-PLD activity)
Oc1c(Cl)cc(Cl)cc1Sc1cc(Cl)cc(Cl)c1O [Bithionol]	25 mg kg^−1 body weight per day	self-contained balls of tumor cells (C) with a pushing border	lacked gross evidence of metastatic melanoma	inhibited in a dose-dependent manner; also recorded: could be reduced	can be inhibited	rescued by excess LPA	could be reduced		
O=[As](O)(O)c1ccc(Cc2ccc([As](=O)(O)O)cc2)cc1 [NSC 48300]				inhibited in a dose-dependent manner			could be reduced	could be reduced	98.0%
